Test results from ChEMBL document CHEMBL1123903, “Synthesis and antimalarial effects of 4-[(7-chloro-4-quinolinyl)amino]-2-[(diethylamino)methyl] -6-alkylphenols and their N omega-oxides” (1987).

How the values were obtained:
Format in all cases: functional
Mus musculus [1] = assay: Number of mice surviving at 60 days postinfection when administered as a single dose of 160 mg/kg (sc) 72-h post infection (delta MST)
Mus musculus [2] = assay: Antimalarial activity tested against trophozoite induced Plasmodium berghei in mice (Mus musculus) expressed as change in mean survival time after a single dose of 640 mg/kg (subcutaneously); conditions: route subcutaneous
[3] = Antimalarial activity tested against trophozoite induced Plasmodium berghei in mice (Mus musculus) expressed as change in mean survival time after a single dose of 40 mg/kg (subcutaneously); conditions: route subcutaneous
Plasmodium berghei [4] = assay: Change in mean survival time of trophozoite-induced Plasmodium berghei infection after 80 mg/kg subcutaneous dose
Mus musculus [5] = assay: Antimalarial activity tested against trophozoite induced Plasmodium berghei in mice (Mus musculus) expressed as change in mean survival time after a single dose of 320 mg/kg (subcutaneously); conditions: route subcutaneous
Mus musculus [6] = assay: Antimalarial activity tested against trophozoite induced Plasmodium berghei in mice (Mus musculus) expressed as change in mean survival time after a single dose of 10 mg/kg (subcutaneously); conditions: route subcutaneous
Mus musculus [7] = assay: Number of mice surviving at 60 days postinfection when administered as a single dose of 40 mg/kg (sc) 72-h post infection (delta MST)
Mus musculus [8] = assay: Number of mice surviving at 60 days postinfection when administered as a single dose of 80 mg/kg (sc) 72-h post infection (delta MST)
Plasmodium berghei [9] = assay: Change in mean survival time of trophozoite-induced Plasmodium berghei infection after 20 mg/kg subcutaneous dose
Plasmodium berghei [10] = assay: Change in mean survival time of trophozoite-induced Plasmodium berghei infection after 160 mg/kg subcutaneous dose
Mus musculus [11] = assay: Number of mice surviving at 60 days postinfection when administered as a single dose of 320 mg/kg (sc) 72-h post infection (delta MST)
Mus musculus [12] = assay: Number of mice surviving at 60 days postinfection when administered as a single dose of 640 mg/kg (sc) 72-h post infection (delta MST)
Plasmodium berghei [13] = assay: Change in mean survival time of trophozoite-induced Plasmodium berghei infection after 40 mg/kg subcutaneous dose
Mus musculus [14] = assay: Number of mice surviving at 60 days postinfection when administered as a single dose of 640 mg/kg (sc) 72-h post infection
Mus musculus [15] = assay: Number of mice surviving at 60 days postinfection when administered as a single dose of 320 mg/kg (sc) 72-h post infection
Mus musculus [16] = assay: Number of mice surviving at 60 days postinfection when administered as a single dose of 160 mg/kg (sc) 72-h post infection
Mus musculus [17] = assay: Number of mice surviving at 60 days postinfection when administered as a single dose of 80 mg/kg (sc) 72-h post infection
Mus musculus [18] = assay: Number of deaths when administered as a single dose of 640 mg/kg (sc) 72-h postinfection in mice
Mus musculus [19] = assay: Number of deaths when administered as a single dose of 320 mg/kg (sc) 72-h postinfection in mice
Mus musculus [20] = assay: Number of mice surviving at 60 days postinfection when administered as a single dose of 20 mg/kg (sc) 72-h post infection (delta MST)

Row | Structure (SMILES) | Cures (Mus musculus [1]) | Delta MST (Mus musculus [2]) [days] | Delta MST [3] [days] | Delta MST (Plasmodium berghei [4]) [days] | Delta MST (Mus musculus [5]) [days] | Delta MST (Mus musculus [6]) [days] | Cures (Mus musculus [7]) | Cures (Mus musculus [8]) | Delta MST (Plasmodium berghei [9]) [days] | Delta MST (Plasmodium berghei [10]) [days] | Cures (Mus musculus [11]) | Cures (Mus musculus [12]) | Delta MST (Plasmodium berghei [13]) [days] | Cures (Mus musculus [14]) | Cures (Mus musculus [15]) | Cures (Mus musculus [16]) | Cures (Mus musculus [17]) | Deaths (Mus musculus [18]) | Deaths (Mus musculus [19]) | Cures (Mus musculus [20])
1 | CCc1cc(Nc2ccnc3cc(Cl)ccc23)cc(CN(CC)CC)c1O | 4 | 27.4 | 12.4 | 20.7 | 34.4 | 6.1 | 1 | 2 | 12.1 | 14.4 | 4 | 4 |  |  |  |  |  |  |  | 
2 | CCN(CC)Cc1cc(Nc2cc[n+]([O-])c3cc(Cl)ccc23)cc(C(C)C)c1O | 1 | 23.7 |  | 15.5 | 29.7 | 3 | 1 | 1 | 11.8 | 21.7 | 1 | 4 | 15.5 |  |  |  |  |  |  | 
3 | CCN(CC)Cc1cc(Nc2cc[n+]([O-])c3cc(Cl)ccc23)cc(C(C)(C)C)c1O |  | 6.1 |  | 2.9 | 6.7 | 3.7 |  |  | 0.1 | 4.1 |  |  | 1.7 |  |  |  |  |  |  | 
4 | CCN(CC)Cc1cc(Nc2cc[n+]([O-])c3cc(Cl)ccc23)cc(Sc2ccc(Cl)cc2)c1O |  | 14.4 |  | 3.4 | 9 |  |  |  | 0.5 | 7.6 |  |  | 4.1 |  |  |  |  |  |  | 
5 | CCN(CC)Cc1cc(Nc2ccnc3cc(Cl)ccc23)cc(C(C)C)c1O |  |  |  | 25.4 |  | 11.1 | 3 | 4 | 18.1 |  |  |  | 27.9 | 5 | 5 | 5 |  |  |  | 
6 | CCC(C)c1cc(Nc2ccnc3cc(Cl)ccc23)cc(CN(CC)CC)c1O (stereo not given) | 1 |  |  | 29.4 |  | 9.8 | 2 | 2 | 18 | 40.2 |  |  | 27.7 | 5 | 5 |  |  |  |  | 
7 | CCC(C)c1cc(Nc2cc[n+]([O-])c3cc(Cl)ccc23)cc(CN(CC)CC)c1O (stereo not given) | 2 |  |  | 21.9 | 39.7 | 4.6 |  |  | 12.6 | 30 | 3 |  | 20.9 | 5 |  |  |  |  |  | 
8 | CCN(CC)Cc1cc(Nc2ccnc3cc(Cl)ccc23)c2c(c1O)CCCC2 | 2 |  |  | 14.8 | 28.3 | 6.8 | 2 | 2 | 12.6 | 15.1 | 3 |  | 12.8 | 3 |  |  |  |  |  | 
9 | CCN(CC)Cc1cc(Nc2ccnc3cc(Cl)ccc23)ccc1O.Cl |  |  |  |  |  |  |  |  | 8.3 |  |  |  | 11.9 | 5 | 5 | 5 | 2 |  |  | 
10 | CCN(CC)Cc1cc(Nc2ccnc3cc(Cl)ccc23)cc(Cc2ccccc2)c1O |  | 7.9 |  | 3.4 | 7.8 |  |  |  | 0.2 | 3.7 |  |  | 1.7 |  |  |  |  |  |  | 
11 | CCN(CC)Cc1cc(Nc2ccnc3cc(Cl)ccc23)cc(Sc2ccc(Cl)cc2)c1O |  | 13.1 |  | 8.8 |  |  |  |  | 3 | 10.1 |  |  | 7.3 |  |  |  |  |  |  | 
12 | CCN(CC)Cc1cc(Nc2cc[n+]([O-])c3cc(Cl)ccc23)cc(Cc2ccccc2)c1O |  |  |  | 4.2 |  |  |  |  | 0.4 | 5.4 |  |  | 2 |  |  |  |  | 14 | 14 | 
13 | CCN(CC)Cc1cc(Nc2ccnc3cc(Cl)ccc23)cc(C)c1O | 4 |  |  | 13.7 | 17.2 | 7 | 1 | 4 | 10.4 | 20.7 | 3 |  | 13 | 5 |  |  |  |  |  | 
14 | CCN(CC)Cc1cc(Nc2ccnc3cc(Cl)ccc23)cc(C(C)(C)C)c1O |  | 6.3 |  | 1.7 | 5.9 |  |  |  | 0.1 | 1.9 |  |  | 0.5 |  |  |  |  |  |  | 
15 | CCN(CC)Cc1cc(Nc2ccnc3cc(Cl)ccc23)cc(C2CCCCC2)c1O |  |  |  | 10.6 |  |  |  | 2 | 0.5 |  |  |  | 5.7 | 5 | 5 | 5 |  |  |  | 
16 | CCN(CC)Cc1cc(Nc2cc[n+]([O-])c3cc(Cl)ccc23)cc(C2CCCCC2)c1O | 3 |  |  | 8.5 | 24.9 |  |  |  | 0.5 | 22.4 | 4 |  | 3.9 | 5 |  |  |  |  |  | 
17 | CCc1cc(Nc2cc[n+]([O-])c3cc(Cl)ccc23)cc(CN(CC)CC)c1O | 2 | 1.4 |  | 10.9 | 13.4 | 3.7 | 1 | 3 | 5.5 | 13.4 | 3 |  | 13.2 | 4 |  |  |  |  |  | 
18 | CC(C)(C)NCc1cc(Nc2ccnc3cc(Cl)ccc23)cc(-c2ccc(Cl)cc2)c1O [TEBUQUINE] | 2 | 17.1 |  | 14.9 | 16.4 |  | 4 | 3 | 14.9 | 14.9 | 1 |  | 19.9 |  |  |  |  |  |  | 3
19 | CCN(CC)Cc1cc(Nc2cc[n+]([O-])c3cc(Cl)ccc23)cc(C)c1O | 3 |  |  | 11.5 | 19 | 1.4 | 2 | 1 | 7.6 | 13 | 3 |  | 14.3 | 5 |  |  |  |  |  | 
